Assay results published in patent publication US8785460B2, “Tricyclic compounds and use thereof” (Takeda Pharmaceutical Company Limited, priority 2008, dated 2014).

Tests used:
human CRF1 receptor = target: T1, human CRF1 receptor (Homo sapiens, UniProt P34998); assay: Measurement of CRF Binding Inhibitory Rate (receptor binding experiment with 125I-CRF); conditions: human CRF1 receptor expressing CHO cellular membrane fraction, 50 pM 125I-CRF, room temperature 1.5 hr, 0.05 nM to 10 μM of compound; read-out: IC50 values (CRF binding inhibition)
T1 construct: expressed in transfected cells; host or cells: CHO cells (membrane fraction)
T1 sequence (P34998 24-415): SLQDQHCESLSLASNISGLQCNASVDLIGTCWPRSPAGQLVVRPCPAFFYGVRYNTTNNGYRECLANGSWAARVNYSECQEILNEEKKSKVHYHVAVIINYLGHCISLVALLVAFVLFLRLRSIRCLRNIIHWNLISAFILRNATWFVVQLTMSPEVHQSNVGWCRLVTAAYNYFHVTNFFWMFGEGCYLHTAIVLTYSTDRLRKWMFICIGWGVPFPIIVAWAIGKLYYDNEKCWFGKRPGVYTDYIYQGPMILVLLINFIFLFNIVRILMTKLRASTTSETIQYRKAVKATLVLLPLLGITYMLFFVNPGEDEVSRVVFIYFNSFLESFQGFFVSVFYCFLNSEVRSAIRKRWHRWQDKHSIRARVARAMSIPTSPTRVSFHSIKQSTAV

Compound | melting point [°C] | IC50 (human CRF1 receptor) [nM]
OC(c1ccc(Cl)c2nc3n(c12)CCCN3c1ccc(Cl)cc1C(F)(F)F)C1CC1 (stereo not drawn) [Example 132, {9-Chloro-1-[4-chloro-2-(trifluoromethyl)phenyl]-1,2,3,4-tetrahydropyrimido[1,2-a]benzimidazol-6-yl}(cyclopropyl)methanol] | 224 to 225 | < 1000
CCC(OC)c1ccc(Cl)c2nc3n(c12)CCCN3c1ccc(Cl)cc1C(F)(F)F (stereo not drawn) [Example 133, 9-Chloro-1-[4-chloro-2-(trifluoromethyl)phenyl]-6-(1-methoxypropyl)-1,2,3,4-tetrahydropyrimido[1,2-a]benzimidazole] | 202 to 203 | < 1000
COC(c1ccc(Cl)c2nc3n(c12)CCCN3c1ccc(Cl)cc1C(F)(F)F)C1CC1 (stereo not drawn) [Example 134, 9-Chloro-1-[4-chloro-2-(trifluoromethyl)phenyl]-6-[cyclopropyl(methoxy)methyl]-1,2,3,4-tetrahydropyrimido[1,2-a]benzimidazole] | 208 to 209 | < 1000
Cc1cc(Cl)cc(Cl)c1N1CCCn2c1nc1c(Cl)ccc(C(O)(C3CC3)C3CC3)c12 [Example 138, [9-Chloro-1-(2,4-dichloro-6-methylphenyl)-1,2,3,4-tetrahydropyrimido[1,2-a]benzimidazol-6-yl](dicyclopropyl)methanol] | 210 to 212 | < 1000
CCCC(O)(CCC)c1ccc(Cl)c2nc3n(c12)CCCN3c1c(C)cc(Cl)cc1Cl [Example 139, 4-[9-Chloro-1-(2,4-dichloro-6-methylphenyl)-1,2,3,4-tetrahydropyrimido[1,2-a]benzimidazol-6-yl]heptan-4-ol] | 176 to 178 | < 1000
CCCC(OC)c1ccc(Cl)c2nc3n(c12)CCCN3c1c(C)cc(Cl)cc1Cl (stereo not drawn) [Example 141, 9-Chloro-1-(2,4-dichloro-6-methylphenyl)-6-(1-methoxybutyl)-1,2,3,4-tetrahydropyrimido[1,2-a]benzimidazole] | 151 to 152 | < 1000
CCC(CO)c1ccc(Cl)c2nc3n(c12)CCCN3c1ccc(Cl)cc1Cl (stereo not drawn) [Example 147, 2-[9-Chloro-1-(2,4-dichlorophenyl)-1,2,3,4-tetrahydropyrimido[1,2-a]benzimidazol-6-yl]butan-1-ol] | 162 to 164 | < 1000
CC(C)(CO)c1ccc(Cl)c2nc3n(c12)CCCN3c1ccc(Cl)cc1Cl [Example 148, 2-[9-Chloro-1-(2,4-dichlorophenyl)-1,2,3,4-tetrahydropyrimido[1,2-a]benzimidazol-6-yl]-2-methylpropan-1-ol] | 176 to 177 | < 1000
CCC(COC)c1ccc(Cl)c2nc3n(c12)CCCN3c1ccc(Cl)cc1Cl (stereo not drawn) [Example 149, 9-Chloro-1-(2,4-dichlorophenyl)-6-[1-(methoxymethyl)propyl]-1,2,3,4-tetrahydropyrimido[1,2-a]benzimidazole] | 130 to 131 | < 1000
COCC(C)(C)c1ccc(Cl)c2nc3n(c12)CCCN3c1ccc(Cl)cc1Cl [Example 150, 9-Chloro-1-(2,4-dichlorophenyl)-6-(2-methoxy-1,1-dimethylethyl)-1,2,3,4-tetrahydropyrimido[1,2-a]benzimidazole] | 188 to 190 | < 1000
CCC(OC(C)=O)c1ccc(Cl)c2nc3n(c12)CCCN3c1cnc(N(C)C)cc1C (stereo not drawn) [Example 155, 1-{9-Chloro-1-[6-(dimethylamino)-4-methylpyridin-3-yl]-1,2,3,4-tetrahydropyrimido[1,2-a]benzimidazol-6-yl}propyl acetate] | 159 to 160 | < 1000
CCOC(CC)c1ccc(Cl)c2nc3n(c12)CCCN3c1cnc(N(C)C)cc1C (stereo not drawn) [Example 156, 5-[9-Chloro-6-(1-ethoxypropyl)-3,4-dihydropyrimido[1,2-a]benzimidazol-1(2H)-yl]-N,N,4-trimethylpyridin-2-amine] | 179 to 180 | < 1000
CCC(OC(C)=O)c1ccc(Cl)c2nc3n(c12)CCCN3c1ccc(N(C)C)nc1C (stereo not drawn) [Example 166, 1-{9-Chloro-1-[6-(dimethylamino)-2-methylpyridin-3-yl]-1,2,3,4-tetrahydropyrimido[1,2-a]benzimidazol-6-yl}propyl acetate] | 165 to 166 | < 1000
CCC(OCC(F)(F)F)c1ccc(Cl)c2nc3n(c12)CCCN3c1ccc(N(C)C)nc1C (stereo not drawn) [Example 167, 5-{9-Chloro-6-[1-(2,2,2-trifluoroethoxy)propyl]-3,4-dihydropyrimido[1,2-a]benzimidazol-1(2H)-yl}-N,N,6-trimethylpyridin-2-amine] | 144 to 146 | < 1000
CCC(OC(C)=O)c1ccc(Cl)c2nc3n(c12)CCCN3c1ncc(Cl)cc1Cl (stereo not drawn) [Example 171, 1-[9-Chloro-1-(3,5-dichloropyridin-2-yl)-1,2,3,4-tetrahydropyrimido[1,2-a]benzimidazol-6-yl]propyl acetate] | 157 to 159 | < 1000
CCC(OC(=O)C1CC1)c1ccc(Cl)c2nc3n(c12)CCCN3c1ncc(Cl)cc1Cl (stereo not drawn) [Example 172, 1-[9-Chloro-1-(3,5-dichloropyridin-2-yl)-1,2,3,4-tetrahydropyrimido[1,2-a]benzimidazol-6-yl]propyl cyclopropanecarboxylate] | 154 to 155 | < 1000
COc1nc(C)nc(OC)c1N1CCCn2c1nc1c(Cl)ccc(C(O)(C3CC3)C3CC3)c12 [Example 174, [9-Chloro-1-(4,6-dimethoxy-2-methylpyrimidin-5-yl)-1,2,3,4-tetrahydropyrimido[1,2-a]benzimidazol-6-yl](dicyclopropyl)methanol] | 204 to 205 | < 1000
Cc1cnc(N2CCCn3c2nc2c(Cl)ccc(C(O)(C4CC4)C4CC4)c23)c(C)n1 [Example 176, [9-Chloro-1-(3,5-dimethylpyrazin-2-yl)-1,2,3,4-tetrahydropyrimido[1,2-a]benzimidazol-6-yl](dicyclopropyl)methanol] | 152 to 153 | < 1000
COc1nc(C)c(N2CCCn3c2nc2c(Cl)ccc(C(O)(C4CC4)C4CC4)c23)c(C)n1 [Example 188, [9-Chloro-1-(2-methoxy-4,6-dimethylpyrimidin-5-yl)-1,2,3,4-tetrahydropyrimido[1,2-a]benzimidazol-6-yl](dicyclopropyl)methanol] | 220 to 221 | < 1000
COc1nc(C)c(N2CCCn3c2nc2c(Cl)ccc(C(OCC(F)(F)F)C4CC4)c23)c(C)n1 (stereo not drawn) [Example 189, 9-Chloro-6-[cyclopropyl(2,2,2-trifluoroethoxy)methyl]-1-(2-methoxy-4,6-dimethylpyrimidin-5-yl)-1,2,3,4-tetrahydropyrimido[1,2-a]benzimidazole] | 225 to 227 | < 1000
CC/C(=N\OC(F)F)c1ccc(Cl)c2nc3n(c12)CCCN3c1c(C)nc(OC)nc1C [Example 193, (1E)-1-[9-Chloro-1-(2-methoxy-4,6-dimethylpyrimidin-5-yl)-1,2,3,4-tetrahydropyrimido[1,2-a]benzimidazol-6-yl]propan-1-one O-(difluoromethyl)oxime] | 199 to 200 | < 1000
CCc1cc(CC)n(-c2ccc(Cl)c3nc4n(c23)CCCN4c2ccc(Cl)cc2Cl)n1 [Example 197, 9-Chloro-1-(2,4-dichlorophenyl)-6-(3,5-diethyl-1H-pyrazol-1-yl)-1,2,3,4-tetrahydropyrimido[1,2-a]benzimidazole] | 185 to 187 | < 1000
COC(c1cccc2nc3n(c12)CCCN3c1ccc(Cl)cc1Cl)C1CC1 (stereo not drawn) [Example 200, 6-[Cyclopropyl(methoxy)methyl]-1-(2,4-dichlorophenyl)-1,2,3,4-tetrahydropyrimido[1,2-a]benzimidazole] | 118 to 119 | < 1000
COC(c1cccc2nc3n(c12)CCCN3c1ccc(Cl)cc1Cl)C(F)(F)F (stereo not drawn) [Example 202, 1-(2,4-Dichlorophenyl)-6-(2,2,2-trifluoro-1-methoxyethyl)-1,2,3,4-tetrahydropyrimido[1,2-a]benzimidazole] | 164 to 165 | < 1000
CCC(CC(N)=O)c1cccc2nc3n(c12)CCCN3c1ccc(Cl)cc1Cl (stereo not drawn) [Example 205, 3-[1-(2,4-Dichlorophenyl)-1,2,3,4-tetrahydropyrimido[1,2-a]benzimidazol-6-yl]pentanamide] | 132 to 133 | < 1000
CCOc1nc(C)c(N2CCCn3c2nc2c(Cl)ccc(C(OC(F)F)C(F)(F)F)c23)c(C)n1 (stereo not drawn) [Example 210, 9-Chloro-6-[1-(difluoromethoxy)-2,2,2-trifluoroethyl]-1-(2-ethoxy-4,6-dimethylpyrimidin-5-yl)-1,2,3,4-tetrahydropyrimido[1,2-a]benzimidazole] | 218 to 220 | < 1000
Cc1nc(OC(C)C)nc(C)c1N1CCCn2c1nc1c(Cl)ccc(C(OC(F)F)C(F)(F)F)c12 (stereo not drawn) [Example 211, 9-Chloro-6-[1-(difluoromethoxy)-2,2,2-trifluoroethyl]-1-[4,6-dimethyl-2-(1-methylethoxy)pyrimidin-5-yl]-1,2,3,4-tetrahydropyrimido[1,2-a]benzimidazole] | 227 to 230 | < 1000
